≈ marks a conversion by molar mass, not a printed value.

Common to all, as to experiment: Bacterial susceptibility testing, MIC by broth microdilution (CLSI)
Type in all cases: cell-based
A general note: Dilution methods test growth across graded concentrations, often in twofold steps.

In one test the test system is E. coli ATCC25922. The following applies: Escherichia coli, 35° C., 18-24 h, read-out: MIC (μg/mL) E. coli ATCC25922. The procedure:
(§1) Minimal inhibitory concentrations (MIC) were determined by the broth microdilution method in accordance with the Clinical and Laboratory Standards Institute (CLSI) guidelines. In brief, organism suspensions were adjusted to a final inoculum between 3×10^5 and 7×10^5 colony-forming units (CFU)/mL. Drug dilutions and inocula were made in sterile, cation adjusted Mueller-Hinton Broth (Beckton Dickinson). In wells, an inoculum volume of 100 μL was mixed to 2 μL of DMSO with 2-fold serial dilutions of drug. All inoculated microdilution trays were incubated in ambient air at 35° C. for 18-24 h. Following incubation, the lowest concentration of the drug that prevented visible growth (OD600 nm<0.05) was recorded as the MIC. Performance of the assay was monitored by the use of laboratory quality-control strains and compounds with defined MIC spectrum, in accordance with CLSI guidelines

A further test deals with K. pneumoniae ATCC13883. The note with it: Klebsiella pneumoniae, 35° C., 18-24 h, read-out: MIC (μg/mL) K. pneumoniae ATCC13883. As to the method:
as §1

The subject of another test is P. aeruginosa 209 PAO1. The note with it: Pseudomonas aeruginosa, 35° C., 18-24 h, read-out: MIC (μg/mL) P. aeruginosa 209 PAO1. The procedure:
as §1

For another test, the system named is P. aeruginosa ATCC27835. The note with it: Pseudomonas aeruginosa, 35° C., 18-24 h, read-out: MIC (μg/mL) P. aeruginosa ATCC27835. The procedure:
as §1

`C[C@@H](O)c1nccn1[C@H](C#Cc1ccc(-c2ccc(OCC(N)CO)cc2)cc1)CO` (mixture of isomers) [Compound 1, (2R)-4-(4′-(2-amino-3-hydroxypropoxy)-[1,1′-biphenyl]-4-yl)-2-(2-((R)-1-hydroxyethyl)-1H-imidazol-1-yl)but-3-yn-1-ol]: the MIC stood at 8 µg/mL (≈ 19 µM) in the test with E. coli ATCC25922, 32 µg/mL (≈ 75.9 µM) in the test with K. pneumoniae ATCC13883, 1 µg/mL (≈ 2.37 µM) in the test on P. aeruginosa 209 PAO1 and 1 µg/mL (≈ 2.37 µM) in the test on P. aeruginosa ATCC27835.
Turning to `C[C@H](O)c1nccn1[C@@H](C#Cc1ccc(-c2ccc(O[C@@H]3C[C@H]3N)cc2)cc1)CO` (racemic) [Compound 4, (S)-4-(4′-((trans)-2-aminocyclopropoxy)-[1,1′-biphenyl]-4-yl)-2-(2-((S)-1-hydroxyethyl)-1H-imidazol-1-yl)but-3-yn-1-ol], the MIC is 0.25 µg/mL (≈ 0.62 µM) in the test with E. coli ATCC25922, 0.5 µg/mL (≈ 1.24 µM) with K. pneumoniae ATCC13883, 2 µg/mL (≈ 4.96 µM) in the test with P. aeruginosa 209 PAO1 and 2 µg/mL (≈ 4.96 µM) in the test on P. aeruginosa ATCC27835.
Consider `C[C@H](O)c1nccn1[C@@H](C#Cc1ccc(-c2ccc(C(O)CO)cc2)cc1)CO` (mixture of isomers) [Compound 5, 1-(4′-((S)-4-hydroxy-3-(2-((S)-1-hydroxyethyl)-1H-imidazol-1-yl)but-1-yn-1-yl)-[1,1′-biphenyl]-4-yl)ethane-1,2-diol], for which the MIC in the test on E. coli ATCC25922 was 8 µg/mL (≈ 20.4 µM); in the test on K. pneumoniae ATCC13883, 16 µg/mL (≈ 40.8 µM); with P. aeruginosa 209 PAO1, 4 µg/mL (≈ 10.2 µM); with P. aeruginosa ATCC27835 it was 4 µg/mL (≈ 10.2 µM).
As for `C[C@H](O)c1nccn1[C@@H](C#Cc1ccc(-c2ccc(COCC(N)CO)cc2)cc1)CO` (mixture of isomers) [Compound 6, (2S)-4-(4′-((2-amino-3-hydroxypropoxy)methyl)-[1,1′-biphenyl]-4-yl)-2-(2-((S)-1-hydroxyethyl)-1H-imidazol-1-yl)but-3-yn-1-ol], the MIC in the test with E. coli ATCC25922 came to 16 µg/mL (≈ 36.7 µM); in the test with K. pneumoniae ATCC13883, 32 µg/mL (≈ 73.5 µM); with P. aeruginosa 209 PAO1 it was 2 µg/mL (≈ 4.59 µM); in the test with P. aeruginosa ATCC27835 it was 4 µg/mL (≈ 9.18 µM).
For the compound `C[C@H](O)c1nccn1[C@@H](C#Cc1ccc(-c2ccc(O[C@H]3COC[C@@H]3O)cc2)cc1)CO` (racemic) [Compound 46, (cis)-4-((4′-((S)-4-hydroxy-3-(2-((S)-1-hydroxyethyl)-1H-imidazol-1-yl)but-1-yn-1-yl)-[1,1′-biphenyl]-4-yl)oxy)tetrahydrofuran-3-ol], the MIC in the test with E. coli ATCC25922 stood at 1 µg/mL (≈ 2.3 µM); with K. pneumoniae ATCC13883 it was 2 µg/mL (≈ 4.6 µM); in the test on P. aeruginosa 209 PAO1, 1 µg/mL (≈ 2.3 µM); with P. aeruginosa ATCC27835, 2 µg/mL (≈ 4.6 µM).
With `C[C@H](O)c1nccn1[C@H](C#Cc1ccc(-c2ccc(OC[C@@H](N)CO)cc2)cc1)CO` [Compound 2, (R)-4-(4′-((S)-2-amino-3-hydroxypropoxy)-[1,1′-biphenyl]-4-yl)-2-(2-((S)-1-hydroxyethyl)-1H-imidazol-1-yl)but-3-yn-1-ol], the MIC was 8 µg/mL (≈ 19 µM) in the test with E. coli ATCC25922, 16 µg/mL (≈ 38 µM) with K. pneumoniae ATCC13883, 2 µg/mL (≈ 4.74 µM) with P. aeruginosa 209 PAO1 and 2 µg/mL (≈ 4.74 µM) in the test with P. aeruginosa ATCC27835.
Turning to `C[C@H](O)c1nccn1CC#Cc1ccc(-c2ccc(C3CC(NCC(=N)N)C3)cc2)cc1` (stereo partly drawn) [Compound 25, (S)-2-((3-(4′-(3-(2-(1-hydroxyethyl)-1H-imidazol-1-yl)prop-1-yn-1-yl)-[1,1′-biphenyl]-4-yl)cyclobutyl)amino)acetimidamide], the results for the MIC in the test on K. pneumoniae ATCC13883, with P. aeruginosa 209 PAO1 and in the test on P. aeruginosa ATCC27835 were 0.5 µg/mL (≈ 1.17 µM), 2 µg/mL (≈ 4.68 µM) and 4 µg/mL (≈ 9.36 µM), respectively.
For `C[C@H](O)c1nccn1CC#Cc1ccc(-c2ccc(C3CC(NCC(=O)O)C3)cc2)cc1` (stereo partly drawn) [Compound 26, (S)-(3-(4′-(3-(2-(1-hydroxyethyl)-1H-imidazol-1-yl)prop-1-yn-1-yl)-[1,1′-biphenyl]-4-yl)cyclobutyl)glycine] the same measures were 4 µg/mL (≈ 9.31 µM), 4 µg/mL (≈ 9.31 µM) and 4 µg/mL (≈ 9.31 µM).
Regarding `C[C@H](O)c1nccn1CC#Cc1ccc(-c2ccc(C3CC(NCc4cocn4)C3)cc2)cc1` (stereo partly drawn) [Compound 27, (S)-1-(1-(3-(4′-(3-((oxazol-4-ylmethyl)amino)cyclobutyl)-[1,1′-biphenyl]-4-yl)prop-2-yn-1-yl)-1H-imidazol-2-yl)ethan-1-ol], the results for the MIC in the test with K. pneumoniae ATCC13883, with P. aeruginosa 209 PAO1 and in the test with P. aeruginosa ATCC27835 were 0.5 µg/mL (≈ 1.1 µM), 2 µg/mL (≈ 4.42 µM) and 4 µg/mL (≈ 8.84 µM), respectively.
For `C[C@H](O)c1nccn1[C@@H](C#Cc1ccc(-c2ccc(C3CC(NCC#N)C3)cc2)cc1)CO` (stereo partly drawn) [Compound 28, 2-((3-(4′-((S)-4-hydroxy-3-(2-((S)-1-hydroxyethyl)-1H-imidazol-1-yl)but-1-yn-1-yl)-[1,1′-biphenyl]-4-yl)cyclobutyl)amino)acetonitrile] the same measures were 0.5 µg/mL (≈ 1.13 µM), 2 µg/mL (≈ 4.54 µM) and 4 µg/mL (≈ 9.08 µM).
Consider `C[C@H](O)c1nccn1[C@@H](C#Cc1ccc(-c2ccc(C3CC(NCc4ncon4)C3)cc2)cc1)CO` (stereo partly drawn) [Compound 29, (S)-4-(4′-(3-(((1,2,4-oxadiazol-3-yl)methyl)amino)cyclobutyl)-[1,1′-biphenyl]-4-yl)-2-(2-((S)-1-hydroxyethyl)-1H-imidazol-1-yl)but-3-yn-1-ol], for which the MIC was determined as 0.5 µg/mL (≈ 1.03 µM) with K. pneumoniae ATCC13883, 2 µg/mL (≈ 4.14 µM) in the test on P. aeruginosa 209 PAO1 and 2 µg/mL (≈ 4.14 µM) in the test with P. aeruginosa ATCC27835.
Regarding `C[C@H](O)c1nccn1[C@@H](C#Cc1ccc(-c2ccc(C3CC(O)C3)cc2)cc1)CO` (stereo partly drawn) [Compound 30, 3-(4′-((S)-4-hydroxy-3-(2-((S)-1-hydroxyethyl)-1H-imidazol-1-yl)but-1-yn-1-yl)-[1,1′-biphenyl]-4-yl)cyclobutan-1-ol], the MIC with K. pneumoniae ATCC13883 stood at 0.5 µg/mL (≈ 1.24 µM); with P. aeruginosa 209 PAO1, 0.5 µg/mL (≈ 1.24 µM); in the test on P. aeruginosa ATCC27835, 2 µg/mL (≈ 4.97 µM).
In the case of `C[C@H](O)c1nccn1[C@@H](C#Cc1ccc(-c2ccc(C3CC(NCC(F)F)C3)cc2)cc1)CO` (stereo partly drawn) [Compound 31, (S)-4-(4′-(3-((2,2-difluoroethyl)amino)cyclobutyl)-[1,1′-biphenyl]-4-yl)-2-(2-((S)-1-hydroxyethyl)-1H-imidazol-1-yl)but-3-yn-1-ol], the MIC with K. pneumoniae ATCC13883 came out at 0.25 µg/mL (≈ 0.537 µM); in the test on P. aeruginosa 209 PAO1, 2 µg/mL (≈ 4.3 µM); in the test with P. aeruginosa ATCC27835 it was 4 µg/mL (≈ 8.59 µM).
With `C[C@H](O)c1nccn1[C@@H](C#Cc1ccc(-c2ccc(C3CC(NCCC#N)C3)cc2)cc1)CO` (stereo partly drawn) [Compound 32, 3-((3-(4′-((S)-4-hydroxy-3-(2-((S)-1-hydroxyethyl)-1H-imidazol-1-yl)but-1-yn-1-yl)-[1,1′-biphenyl]-4-yl)cyclobutyl)amino)propanenitrile], the values for the MIC in the test on K. pneumoniae ATCC13883, with P. aeruginosa 209 PAO1 and in the test on P. aeruginosa ATCC27835 were 0.5 µg/mL (≈ 1.1 µM), 1 µg/mL (≈ 2.2 µM) and 4 µg/mL (≈ 8.8 µM), respectively.
Taken in the same sequence, the figures for `C[C@H](O)c1nccn1[C@@H](C#Cc1ccc(-c2ccc(C3CC(NC(C#N)CO)C3)cc2)cc1)CO` (stereo partly drawn) [Compound 33, 3-hydroxy-2-((3-(4′-((S)-4-hydroxy-3-(2-((S)-1-hydroxyethyl)-1H-imidazol-1-yl)but-1-yn-1-yl)-[1,1′-biphenyl]-4-yl)cyclobutyl)amino)propanenitrile] were 4 µg/mL (≈ 8.5 µM), 2 µg/mL (≈ 4.25 µM) and 2 µg/mL (≈ 4.25 µM).
Take `C[C@H](O)c1nccn1[C@@H](C#Cc1ccc(-c2ccc(C3CC(NCC(F)(F)CO)C3)cc2)cc1)CO` (stereo partly drawn) [Compound 34, (S)-4-(4′-(3-((2,2-difluoro-3-hydroxypropyl)amino)cyclobutyl)-[1,1′-biphenyl]-4-yl)-2-(2-((S)-1-hydroxyethyl)-1H-imidazol-1-yl)but-3-yn-1-ol]: the MIC in the test on E. coli ATCC25922 is 0.5 µg/mL (≈ 1.01 µM); with K. pneumoniae ATCC13883 it was 2 µg/mL (≈ 4.04 µM); in the test on P. aeruginosa 209 PAO1, 2 µg/mL (≈ 4.04 µM); in the test on P. aeruginosa ATCC27835, 4 µg/mL (≈ 8.07 µM).
For the compound `C[C@H](O)c1nccn1[C@@H](C#Cc1ccc(-c2ccc(C3CC(NCc4noc(C(N)=O)n4)C3)cc2)cc1)CO` (stereo partly drawn) [Compound 35, 3-(((3-(4′-((S)-4-hydroxy-3-(2-((S)-1-hydroxyethyl)-1H-imidazol-1-yl)but-1-yn-1-yl)-[1,1′-biphenyl]-4-yl)cyclobutyl)amino)methyl)-1,2,4-oxadiazole-5-carboxamide], the MIC in the test with E. coli ATCC25922 turned out to be 0.5 µg/mL (≈ 0.949 µM); in the test with K. pneumoniae ATCC13883, 2 µg/mL (≈ 3.8 µM); in the test with P. aeruginosa 209 PAO1, 4 µg/mL (≈ 7.6 µM); with P. aeruginosa ATCC27835, 4 µg/mL (≈ 7.6 µM).
Regarding `C[C@H](O)c1nccn1[C@@H](C#Cc1ccc(-c2ccc([C@H]3C[C@H](NS(C)(=O)=O)C3)cc2)cc1)CO` [Compound 36, N-((1S,3r)-3-(4′-((S)-4-hydroxy-3-(2-((S)-1-hydroxyethyl)-1H-imidazol-1-yl)but-1-yn-1-yl)-[1,1′-biphenyl]-4-yl)cyclobutyl)methanesulfonamide], the MIC in the test with E. coli ATCC25922 was 0.25 µg/mL (≈ 0.521 µM); in the test on K. pneumoniae ATCC13883 it was 1 µg/mL (≈ 2.09 µM); in the test on P. aeruginosa 209 PAO1, 1 µg/mL (≈ 2.09 µM); with P. aeruginosa ATCC27835, 2 µg/mL (≈ 4.17 µM).
For `CC(CNC1CC(c2ccc(-c3ccc(C#C[C@@H](CO)n4ccnc4[C@H](C)O)cc3)cc2)C1)C(=O)O` (stereo partly drawn) [Compound 37, 3-((3-(4′-((S)-4-hydroxy-3-(2-((S)-1-hydroxyethyl)-1H-imidazol-1-yl)but-1-yn-1-yl)-[1,1′-biphenyl]-4-yl)cyclobutyl)amino)-2-methylpropanoic acid], the MIC worked out at 2 µg/mL (≈ 4.1 µM) with E. coli ATCC25922, 8 µg/mL (≈ 16.4 µM) in the test on K. pneumoniae ATCC13883, 4 µg/mL (≈ 8.2 µM) in the test with P. aeruginosa 209 PAO1 and 4 µg/mL (≈ 8.2 µM) in the test on P. aeruginosa ATCC27835.
As to `C[C@H](O)c1nccn1[C@@H](C#Cc1ccc(-c2ccc(C3CC(N[C@H]4COC[C@@H]4O)C3)cc2)cc1)CO` (stereo partly drawn) [Compound 38, (3R,4S)-4-((3-(4′-((S)-4-hydroxy-3-(2-((S)-1-hydroxyethyl)-1H-imidazol-1-yl)but-1-yn-1-yl)-[1,1′-biphenyl]-4-yl)cyclobutyl)amino)tetrahydrofuran-3-ol], the MIC in the test on E. coli ATCC25922 stood at 2 µg/mL (≈ 4.1 µM); in the test with K. pneumoniae ATCC13883, 8 µg/mL (≈ 16.4 µM); in the test on P. aeruginosa 209 PAO1, 4 µg/mL (≈ 8.2 µM); in the test on P. aeruginosa ATCC27835 it was 4 µg/mL (≈ 8.2 µM).

The record behind these values is US20240166609A1, “ANTIBACTERIAL COMPOUNDS” (BLACKSMITH MEDICINES, INC., priority 2021, published 2024).
